Measurements as given in patent US4284786A, “5-Methylisoxazole-4-carboxylic-(4-trifluoromethyl)-anilide” (priority 1978, dated 1981).
Like-named read-outs stand apart in the source and are kept apart here.

What was measured:
adjuvant arthritis [1] = assay: Adjuvant arthritis, Perper modification; format: in vivo, male rats, Wistar-Lewis strain; settings: for Adjuvant arthritis Perper (2) ED50: result in words; for ED50: Rattus norvegicus, 504 h, oral, days 1-12, paw volume on 21st day, read-out: Adjuvant arthritis Perper (2) ED50
Protocol: (§1) The investigations were carried out by the method of Pearson (Arthrit.Rheum. 2, 440 (1959)). The experimental animals used were male rats of a Wistar-Lewis strain, having a body weight of between 130 and 200 g. The compounds to be compared were administered orally, daily from the 1st to the 17th day of the experiment. Animals of the control group were given the solvent only. For each dosage, and in the control group, a group of 8 animals was used. The criterion of the activity was the reduction in the paw volume increase compared to the untreated control group. The ED50 values were determined graphically from the dose/effect curve.
The experimental animals and experimental methods were as under 1., but the animals were only treated from the 1st to the 12th day of the experiment; after a treatment-free interval of 9 days, the paw volume was determined on the 21st day.

[2] = tested on: allergic encephalomyelitis; assay: Allergic encephalomyelitis (Levine); format: in vivo, male rats, Wistar-Lewis strain; settings: for Allergic encephalomyelitis (3) % inhibition: days 1-12, index on 11th day
Protocol: Known non-steroid antiphlogistic agents are here at most very slightly active.
The investigations were carried out by the method of Levine (Arch.int.Pharmacodyn. 230, 309 (1977)). The experimental animals used were male rats of a Wistar-Lewis strain having a body weight of between 180 and 220 g. The encephalomyelitis was induced by injection of complete Freund adjuvant to which freshly withdrawn homogenized rat spinal marrow extract and Bordetella pertussis vaccine had been added. The compounds to be compared were administered orally once a day from the 1st to the 12th day. For each dose, and for the control group, a group of 10 animals was used. From the 7th day of the experiment, the paralysis symptoms were grouped together daily in one index with the mortality and the change of body weight. […]
loss of 20 g of body weight in each case: 1 point […]
hindquarters paralysis: 3 points paralysis of the entire body: 5 points
The assessment criterion was the percentage inhibition of the index compared to untreated control animals on the 11th day of the experiment. On conclusion of the experiment, blood was taken from the surviving animals to determine the erythrocyte count and leucocyte count as well as the hematocrit.

adjuvant arthritis [3] = assay: Adjuvant arthritis, preventive experiment (Pearson); format: in vivo, male rats, Wistar-Lewis strain; settings: for ED50: Rattus norvegicus, oral, daily days 1-17, reduction in paw volume increase
Protocol: as §1

[4] = Acute toxicity, oral administration, mice; settings: mouse, in vivo; for selectivity ratio: oral LD50 in mice / ED50, read-out: Therapeutic index LD50/ED50
Text: (§2) 6 animals were used per dose.

[5] = Acute toxicity, intraperitoneal administration to mice; parameters: species or system NMRI mice; settings: mouse, in vivo, ip
Text: as §2

in vivo [6] = assay: in vivo; parameters: species or system male Sprague-Dawley rats; settings: rat, in vivo; for selectivity ratio: acute UD50 / ED50, read-out: Therapeutic index acute UD50/ED50
Protocol: (§3) The investigations were carried out in groups of 10 male Sprague-Dawley rats having a body weight of 200-300 g. 48 hours before administration of the compounds to be compared, and up to the time of killing the animals, food was withheld, but there was free access to drinking water. The rats were killed 24 hours after oral administration, and the stomach was removed under running water and inspected for lesions of the mucous membrane. All macroscopically visible lesions were rated as ulcers.

in vivo [7] = settings: rat, in vivo, po
Protocol: (§4) The acute toxicity were determined by standard methods on NMRI mice and on rats of the Wister and Sprague-Dawley strains. 6 animals were used per dose. The LD50 values were determined by the method of Litchfield and Wilcoxon.

stomach mucous membrane [8] = assay: in vivo; parameters: species or system male Sprague-Dawley rats; settings: single oral dose, fasted rats, 24 hours
Protocol: as §3

[9] = Sub-acute ulcerogenic action; format: in vivo, male Sprague-Dawley rats; settings: rat, in vivo, po; sub-acute UD50 / ED50; read-out: Therapeutic index sub-acute UD50/ED50
Protocol: as §3, with “ulcers. The proportion of animals with ulcers at each dose was determined, as was the UD50 using the method of Litchfield and Wilcoxon (J.Pharmacol.exp.Ther. 96, 99 (1949)).” for “ulcers.”
(§5) The experimental animals and the experimental method were as under 4, with the following modification: the compounds to be compared were administered orally once daily for 4 days to normally fed rats and the animals were killed on the 5th day, after food had been withheld for 24 hours. According to Shriver, this method gives more informative results than a single administration, since medicamentous therapy of rheumatic patients also requires repeated treatment (Toxicology and Appl. Pharmacology 32, 73 (1975)).

rats = assay: in vivo; settings: oral toxicity, relative to compound B
Protocol: as §4

stomach mucous membrane [10] = assay: Sub-acute ulcerogenic action; format: in vivo, male Sprague-Dawley rats; settings: sub-acute, relative to compound B
Protocol: as §3, with “ulcers. The proportion of animals with ulcers at each dose was determined, as was the UD50 using the method of Litchfield and Wilcoxon (J.Pharmacol.exp.Ther. 96, 99 (1949)).” for “ulcers.”
as §5

[11] = in the therapeutic dosage range

Row | SMILES | ED50 (adjuvant arthritis [3]) [mg/kg] | selectivity ratio [4] | ED50 (adjuvant arthritis [1]) [mg/kg] | LD50 [5] [mg/kg] | selectivity ratio (in vivo [6]; po) | LD50 (in vivo [7]) [mg/kg] | selectivity ratio (in vivo [7]) | selectivity ratio [9] | Adjuvant arthritis Perper (2) ED50 (adjuvant arthritis [1]; up to 20.0 (mg/kg)) | Allergic encephalomyelitis (3) % inhibition ([2]; dose 10 mg/kg oral) [%] | TD50 at 24 h (in vivo [6]; po) [mg/kg] | other results
1 | CCCCC1C(=O)N(c2ccccc2)N(c2ccccc2)C1=O [compound F, phenylbutazone] | 37 |  |  |  |  |  |  |  |  |  |  | Adjuvant arthritis Perper (2) ED50 (adjuvant arthritis [1]; up to 75 (mg/kg)): inactive; Allergic encephalomyelitis (3) % inhibition ([2]; dose 75 mg/kg oral): 0%
2 | Cc1oncc1C(=O)Nc1cc(C(F)(F)F)cc(C(F)(F)F)c1 [compound D, 5-methylisoxazole-4-carboxylic acid 3,5-bis-trifluoromethylanilide] | ~50 | 50 | > 50 | > 500 | ~2 |  |  |  |  |  |  | TD50 at 24 h (in vivo [6]; single oral dose, fasted rats, 24 hours, read-out: Ulcerogenic character acute UD50): 100 mg/kg
3 | Cc1oncc1C(=O)Nc1ccc(F)cc1 [compound B, 5-methylisoxazole-4-carboxylic acid 4-fluoroanilide] | 15 |  | 25 | 200 to 400 | 17 | 620 | 41 | 8 |  |  |  | Allergic encephalomyelitis (3) % inhibition ([2]; dose 25 mg/kg oral): 43%; Allergic encephalomyelitis (3): finding printed in the % inhibition column ([2]; dose 50 mg/kg oral): anaemia; Ulcerogenic character acute UD50 (stomach mucous membrane [8]): 250 mg/kg
4 | Cc1oncc1C(=O)Nc1cccc(C(F)(F)F)c1 [compound C, 5-methylixoazole-4-carboxylic acid 3-trifluoromethylanilide] | > 50 | < 15 |  | 100 to 250 | < 12 |  |  |  | inactive | 0 | ~600 | LD50 ([4]; po): 740 mg/kg
5 | Cc1oncc1C(=O)Nc1ccccc1C(F)(F)F [compound E, 5-methylisoxazole-4-carboxylic acid 2-trifluoromethylanilide] | > 50 |  |  | 300 to 6000 | < 7 |  |  |  | inactive | 0 | 350 | 
6 | Cc1oncc1C(=O)Nc1ccc(C(F)(F)F)cc1 [compound A, 5-Methylisoxazole-4-carboxylic acid 4-trifluoromethyl-anilide] | 2.3 |  | 4.5 | 150 to 300 | 25 | 235 | 100 | 33 |  | 100 | 57 | inhibition of immunopathological processes, Perper adjuvant arthritis test (adjuvant arthritis [1]; [11]): inhibits immunopathological processes; therapeutic range (LD50/ED50) times greater than that of compound B (rats): 2.4 times; inhibition of immunopathological processes, allergic encephalomyelitis test [2, 11]: inhibits immunopathological processes; 100% inhibition of the paralysis symptoms in allergic encephalomyelitis without gastro-intestinal bleeding ([2]; rat, in vivo): possible; activity times greater than that of compound B (adjuvant arthritis [3]; ED50, adjuvant arthritis, preventive, relative to compound B): 6.5 times; therapeutic index (UD50/ED50; sub-acute) times greater than that of compound B (stomach mucous membrane [10]): 4.1 times
